# Where two headings read alike, the source gives them in different places.
# Columns and labels:
# [1] = system: adult female B. pahangi worms; assay: Adult in vitro Brugia pahangi motility assay (Worminator); format: cell-based; conditions: for Inhibition of Motility (%) Day 1 / Inhibition of Motility (%) Day 2 / Inhibition of Motility (%) Day 3 / Inhibition of Motility (%) Day 6: female B. pahangi, n = 4 worms; for IC50: adult female Brugia pahangi, worminator motility assay, six-point serial dilution
# Method: Adult in vitro Brugia pahangi assay: Adult female B. pahangi worms were kindly provided by Dr. Brenda Beerntsen, University of Missouri, Columbia, MO. Individual female worms were assayed in 500 μL of culture medium (RPMI-1640 with 25 mM HEPES, 2.0 g/L NaHCO3, 5% heat-inactivated FBS and antibiotic/antimycotic solution) in 24-well plates. Worms treated with 1% DMSO served as negative control and there were four replicates per compound. Worms were maintained at 37 °C in a 5% CO2 incubator for the duration of the assay. Individual worm movement was assessed from day 1–6 using the Worminator [55], which reports worm motility as mean movement units (MMU), a measure of pixels displaced. MMUs are then used to calculate percent inhibition of worm motility compared to control worms.
# [2] = system: T. cruzi Tulahuen CL2; assay: Anti-Chagas activity, T. cruzi on MRC-5 cells; format: cell-based; conditions: amastigotes, MRC-5 host cells, 7 days; read-out: Trypanosoma cruzi IC50 (µM) ± SD
# Method: Anti-Chagas activity: T. cruzi Tulahuen CL2 (benznidazole-sensitive, LacZ-reporter strain) was maintained on MRC-5 cells in minimal essential medium (MEM) supplemented with […], 16.5 mM sodium hydrogen carbonate and 5% FCS. In the assay, 4 × 10^3 MRC-5 cells and 4 × 10^4 parasites were added to each well. After incubation at 37 °C for 7 days, parasite growth was assessed by adding the substrate chlorophenol red -D-galactopyranoside. The color reaction was read at 540 nm after 4 h and absorbance values were expressed as a percentage of the blank controls. Benznidazole was included as reference drug.
# [3] = system: L. infantum MHOM/MA (BE)/67 amastigotes; assay: Anti-leishmanial activity, L. infantum amastigotes in primary peritoneal mouse macrophages; format: cell-based, Leishmania infantum; conditions: amastigotes in primary peritoneal mouse macrophages, 5 days; read-out: Leishmania infantum IC50 (µM) ± SD
# Method: Anti-leishmanial activity: L. infantum MHOM/MA (BE)/67 amastigotes were collected from the spleen of an infected donor hamster and used to infect primary peritoneal mouse macrophages grown in a 96-well plate. After 2 days outgrowth, 5 × 10^5 amastigotes were added to each well and incubated for 2 h at 37 °C. The compounds were subsequently added and the plates were further incubated for 5 days at 37 °C and 5% CO2. Parasite burdens (mean number of amastigotes/macrophage) were microscopically assessed on 500 cells after Giemsa staining and expressed as a percentage of the blank controls. Miltefosine was included as reference drug. The use of laboratory rodents was carried out in accordance to all mandatory guidelines (EU directives, including the Revised Directive 2010/63/EU on the Protection of Animals used for Scientific Purposes that came into force on 1 January 2013, and the declaration of Helsinki in its latest version) and was approved by the Ethical Committee of the University of Antwerp, Belgium [UA-ECD 2011–77 (17-02-2012 and UA-ECD 2015-90].
# [4] = system: BL3 cells; assay: Proliferation test on non-infected BL3 cells; format: cell-based, bovine; conditions: […] and 0.5 μM
# Method: Theileria annulata culture: The TBL3 cell line was derived by in vitro infection of the spontaneous bovine B-lymphosarcoma cell line BL3 with the Hissar stock of T. annulata. B cell characteristics of the lines have been described. The cells are maintained at 37 °C under 5% CO2, in RPMI medium supplemented with 10% FCS, 25 mM Hepes, 4 mM L-glutamine, 100 μg/mL of streptomycin, 100 IU/mL of penicillin and […] 2-mercapthoethanol.
# Cells were cultured in 12-well plates at an initial density of 200,000 cells per well in duplicate for each condition. […] The cells were cultured in 12-well plates at an initial density of 200,000 cells per well and drug was added every 24 h. To be able to compare the results, a drug-free control was also performed. Cell counting was done at 24, 72 and 96 h using the trypan blue method.
# [5] = molecular target: T1, S. mansoni TGR (Schistosoma mansoni, UniProt Q962Y6); assay: biochemical; conditions: 40 nM enzyme, 3 mM DTNB; after 10 min preincubation; read-out: IC50 S. mansoni TGR, substrate DTNB (original data)
# T1 construct: made in house; host or cells: E. coli
# T1 sequence (Q962Y6 1-598): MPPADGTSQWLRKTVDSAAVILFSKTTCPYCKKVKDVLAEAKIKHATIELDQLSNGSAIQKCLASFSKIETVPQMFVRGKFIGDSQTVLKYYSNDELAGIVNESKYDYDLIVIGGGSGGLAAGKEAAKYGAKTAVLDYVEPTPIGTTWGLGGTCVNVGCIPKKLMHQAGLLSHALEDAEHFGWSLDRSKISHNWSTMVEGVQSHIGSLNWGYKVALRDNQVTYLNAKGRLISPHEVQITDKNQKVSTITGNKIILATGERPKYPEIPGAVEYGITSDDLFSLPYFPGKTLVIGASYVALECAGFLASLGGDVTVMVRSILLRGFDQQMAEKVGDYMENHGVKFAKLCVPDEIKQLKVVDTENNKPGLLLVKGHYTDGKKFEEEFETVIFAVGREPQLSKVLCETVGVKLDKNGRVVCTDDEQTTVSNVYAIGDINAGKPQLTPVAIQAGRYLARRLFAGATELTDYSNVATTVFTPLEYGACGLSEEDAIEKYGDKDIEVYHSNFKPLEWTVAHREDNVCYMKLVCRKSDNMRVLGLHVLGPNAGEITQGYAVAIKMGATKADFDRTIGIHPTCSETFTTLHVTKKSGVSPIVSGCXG
# Method: Enzymes were prepared in E. coli as described. Assays were performed at 25 °C in 0.1 M potassium phosphate (pH 7.4), 10 mM EDTA using 100 μM NADPH and 3 mM dithiobis(2-nitrobenzoic acid) (DTNB). […] The increase in A412 during the first 3 min was recorded upon DTNB addition. The reaction was done in triplicate.
# [6] = system: Human TrxR; conditions: 3.7 nM enzyme, 3 mM DTNB; after 10 min preincubation; read-out: IC50 Human TrxR, substrate DTNB; cited from earlier work
compound,measurement,setting,value
"CC(=O)OCC1OC([S][Au][PH]2(c3ccccc3)C(c3ccccn3)=CC=C2c2ccccn2)C(OC(C)=O)C(OC(C)=O)C1OC(C)=O [GoPI-sugar, 1-thio-β-D-glucopyranose 2,3,4,6-tetraacetato-S-Au{1-phenyl-2,5-di(2-pyridyl)phosphole}]",Inhibition of Motility (%) Day 1,[1]; 1 μM,20%
same,Inhibition of Motility (%) Day 2,[1]; 1 μM,16%
same,Inhibition of Motility (%) Day 3,[1]; 1 μM,22%
same,Inhibition of Motility (%) Day 6,[1]; 1 μM,48%
same,Inhibition of Motility (%) Day 1,[1]; 3 μM,24%
same,Inhibition of Motility (%) Day 2,[1]; 3 μM,41%
same,Inhibition of Motility (%) Day 3,[1]; 3 μM,40%
same,Inhibition of Motility (%) Day 6,[1]; 3 μM,96%
same,Inhibition of Motility (%) Day 1,[1]; 10 μM,91%
same,Inhibition of Motility (%) Day 2,[1]; 10 μM,98%
same,Inhibition of Motility (%) Day 3,[1]; 10 μM,100%
same,Inhibition of Motility (%) Day 6,[1]; 10 μM,99%
same,IC50,[1]; read-out: IC50 (µM) Day 2,2.8 µM
same,IC50,[1]; read-out: IC50 (µM) Day 3,3.9 µM
same,IC50,[1]; read-out: IC50 (µM) Day 6,1.7 µM
same,IC50,[2],0.56 ± 0.11 µM
same,IC50,[3],2.38 µM
same,proliferation of BL3 compared to untreated BL3 cells,[4],dampened
same,IC50,[5],0.0125 µM
same,IC50,[6],0.00049 ± 4e-05 µM
